Source: ChEMBL document CHEMBL1148120, “New cytotoxic 6,7-cis and 6,7-trans configured guaianolides from Warionia saharae” (J Nat Prod, 2002)
Converted amounts (≈) assume the structure as drawn.

The compounds below were run on KB (assay: Cytotoxicity against human KB cells).
Format: functional, cell-based
With `C=C1C(=O)O[C@H]2[C@H]1CC=C(C)[C@]1(O)C[C@H]3O[C@@]3(C)[C@H]21` the IC50 was 1.7 µg/mL (≈ 6.48 µM).
Work on `C=C1C(=O)O[C@H]2[C@H]1CCC(=C)[C@]1(O)C[C@H]3O[C@@]3(C)[C@H]21` yielded an IC50 of 2 µg/mL (≈ 7.62 µM).
For `C=C1C(=O)O[C@@H]2[C@H]1CCC(C)=C1[C@H]3O[C@](C)([C@H]3OC(=O)C(C)CC)[C@@H]12` (stereo partly drawn) [3BETA-O-(2-METHYLBUTYRYL)MOROCCOLIDE A], the IC50 was 1 µg/mL (≈ 2.89 µM).
`C=C1C(=O)O[C@@H]2[C@H]1CCC(C)=C1[C@H]3O[C@](C)([C@H]3O)[C@@H]12` [MOROCCOLIDE A] was tested, and the IC50 was 4.5 µg/mL (≈ 17.2 µM).
`C=C1C(=O)O[C@H]2[C@@H]3[C@@](O)(C(C)=CC[C@@H]12)[C@@H]1C[C@@]3(C)O1` [SAHARANOLIDE A] showed an IC50 of 3.3 µg/mL (≈ 12.6 µM).
Compound `C=C1C(=O)O[C@H]2[C@@H]3[C@@](O)(C(=C)CC[C@@H]12)[C@@H]1C[C@@]3(C)O1` [SAHARANOLIDE B] has an IC50 of 5.5 µg/mL (≈ 21 µM).
